Laboratory results published in PubChem BioAssay AID1963432 (Molecular Pharmacology Branch, DTP, NCI, 2024).

System: SYO-1 complex spheroid growth, percent test/control
Assay: Anticancer human tumor SYO-1 cell line growth inhibition [Asc];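 further: compound exposure lasted 7 days after spheroids grew 3 days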;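 on viability, T/C: 100% = DMSO vehicle control viability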
Details: for IC50: curve of first compound; for viability, T/C: stronger effect = lower value
Procedure, shortened: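 Concentration series start at each agent's clinical Cmax, or at 10 microM when none is established, and drop in half-log steps; agents are applied alone or together to complex spheroids built with HUVEC and hMSC.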

[1] = second compound 0.01 µM, first compound 0.0316 µM
[2] = second compound 0.01 µM, first compound 0.1 µM
[3] = second compound 0.01 µM, first compound 0.316 µM
[4] = second compound 0.01 µM, first compound 1 µM
[5] = second compound 0.01 µM, first compound 3.16 µM
[6] = second compound 0.01 µM, first compound 10 µM
[7] = second compound 0.0316 µM, first compound 0.0316 µM
[8] = second compound 0.0316 µM, first compound 0.1 µM
[9] = second compound 0.0316 µM, first compound 0.316 µM
[10] = second compound 0.0316 µM, first compound 1 µM
[11] = second compound 0.0316 µM, first compound 3.16 µM
[12] = second compound 0.0316 µM, first compound 10 µM
[13] = second compound 0.1 µM, first compound 0.0316 µM
[14] = second compound 0.1 µM, first compound 0.1 µM
[15] = second compound 0.1 µM, first compound 0.316 µM
[16] = second compound 0.1 µM, first compound 1 µM
[17] = second compound 0.1 µM, first compound 3.16 µM
[18] = second compound 0.1 µM, first compound 10 µM
[19] = second compound 0.316 µM, first compound 0.0316 µM
[20] = second compound 0.316 µM, first compound 0.1 µM
[21] = second compound 0.316 µM, first compound 0.316 µM
[22] = second compound 0.316 µM, first compound 1 µM
[23] = second compound 0.316 µM, first compound 3.16 µM
[24] = second compound 0.316 µM, first compound 10 µM
[25] = second compound 1 µM, first compound 0.0316 µM
[26] = second compound 1 µM, first compound 0.1 µM
[27] = second compound 1 µM, first compound 0.316 µM
[28] = second compound 1 µM, first compound 1 µM
[29] = second compound 1 µM, first compound 3.16 µM
[30] = second compound 1 µM, first compound 10 µM

Compound: C=C(F)C(=O)N1CCN(c2nc(OCC3CCCN3C)nc3c2CCN(c2cccc4cccc(Cl)c24)C3)CC1CC#N (stereo not given) + CNC(C)C(=O)NC1CN(S(=O)(=O)c2cccc(S(=O)(=O)N3CCC4CCC(C(=O)NC(c5ccccc5)c5ccccc5)N4C(=O)C(NC(=O)C(C)NC)C3)c2)CCC2CCC(C(=O)NC(c3ccccc3)c3ccccc3)N2C1=O
- IC50 (second compound 0.01 µM): 5.65 µM
- IC50 (second compound 0.0316 µM): 5.6 µM
- IC50 (second compound 0.1 µM): 5.58 µM
- IC50 (second compound 0.316 µM): 5.46 µM
- IC50 (second compound 1 µM): 5.36 µM
- viability, T/C [1]: 99.1%
- viability, T/C [2]: 113%
- viability, T/C [3]: 104%
- viability, T/C [4]: 99.7%
- viability, T/C [5]: 101%
- viability, T/C [6]: 0.23%
- viability, T/C [7]: 96.7%
- viability, T/C [8]: 103%
- viability, T/C [9]: 101%
- viability, T/C [10]: 98.3%
- viability, T/C [11]: 99%
- viability, T/C [12]: 0.22%
- viability, T/C [13]: 100%
- viability, T/C [14]: 105%
- viability, T/C [15]: 95%
- viability, T/C [16]: 97.2%
- viability, T/C [17]: 98.6%
- viability, T/C [18]: 0.21%
- viability, T/C [19]: 98.5%
- viability, T/C [20]: 103%
- viability, T/C [21]: 103%
- viability, T/C [22]: 88.7%
- viability, T/C [23]: 95%
- viability, T/C [24]: 0.23%
- viability, T/C [25]: 104%
- viability, T/C [26]: 104%
- viability, T/C [27]: 101%
- viability, T/C [28]: 94.2%
- viability, T/C [29]: 92.3%
- viability, T/C [30]: 0.26%

Compound: C=CC(=O)N1CCN(c2nc(=O)n(-c3c(C)ccnc3C(C)C)c3nc(-c4c(O)cccc4F)c(F)cc23)C(C)C1 (stereo not given) + CNC(C)C(=O)NC1CN(S(=O)(=O)c2cccc(S(=O)(=O)N3CCC4CCC(C(=O)NC(c5ccccc5)c5ccccc5)N4C(=O)C(NC(=O)C(C)NC)C3)c2)CCC2CCC(C(=O)NC(c3ccccc3)c3ccccc3)N2C1=O
- IC50 (second compound 0.01 µM): > 10 µM
- IC50 (second compound 0.0316 µM): > 10 µM
- IC50 (second compound 0.1 µM): > 10 µM
- IC50 (second compound 0.316 µM): > 10 µM
- IC50 (second compound 1 µM): > 10 µM
- viability, T/C [1]: 104%
- viability, T/C [2]: 105%
- viability, T/C [3]: 101%
- viability, T/C [4]: 102%
- viability, T/C [5]: 90.3%
- viability, T/C [6]: 83.6%
- viability, T/C [7]: 97.4%
- viability, T/C [8]: 94.5%
- viability, T/C [9]: 99.4%
- viability, T/C [10]: 97.2%
- viability, T/C [11]: 87.3%
- viability, T/C [12]: 86.2%
- viability, T/C [13]: 88.3%
- viability, T/C [14]: 94.3%
- viability, T/C [15]: 100%
- viability, T/C [16]: 92.5%
- viability, T/C [17]: 98.1%
- viability, T/C [18]: 85.4%
- viability, T/C [19]: 96.6%
- viability, T/C [20]: 98%
- viability, T/C [21]: 97.5%
- viability, T/C [22]: 93.5%
- viability, T/C [23]: 87.4%
- viability, T/C [24]: 89.6%
- viability, T/C [25]: 98.1%
- viability, T/C [26]: 98.1%
- viability, T/C [27]: 93.1%
- viability, T/C [28]: 95.8%
- viability, T/C [29]: 93.5%
- viability, T/C [30]: 88%

Compound: CCN1C(C(=O)NC23CCC(C(=O)O)(CC2)CC3)C(c2cccc(Cl)c2F)C2(C(=O)Nc3cc(Cl)ccc32)C12CCCCC2 (stereo not given) + CNC(C)C(=O)NC1CN(S(=O)(=O)c2cccc(S(=O)(=O)N3CCC4CCC(C(=O)NC(c5ccccc5)c5ccccc5)N4C(=O)C(NC(=O)C(C)NC)C3)c2)CCC2CCC(C(=O)NC(c3ccccc3)c3ccccc3)N2C1=O
- IC50 (second compound 0.01 µM): 0.146 µM
- IC50 (second compound 0.0316 µM): 0.12 µM
- IC50 (second compound 0.1 µM): 0.11 µM
- IC50 (second compound 0.316 µM): 0.115 µM
- IC50 (second compound 1 µM): 0.0949 µM
- viability, T/C (second compound 0.01 µM, first compound 0.00949 µM): 104%
- viability, T/C (second compound 0.01 µM, first compound 0.03 µM): 95%
- viability, T/C (second compound 0.01 µM, first compound 0.0949 µM): 71.8%
- viability, T/C (second compound 0.01 µM, first compound 0.3 µM): 13.8%
- viability, T/C (second compound 0.01 µM, first compound 0.949 µM): 1.75%
- viability, T/C (second compound 0.01 µM, first compound 3 µM): 0.88%
- viability, T/C (second compound 0.0316 µM, first compound 0.00949 µM): 98.9%
- viability, T/C (second compound 0.0316 µM, first compound 0.03 µM): 96.6%
- viability, T/C (second compound 0.0316 µM, first compound 0.0949 µM): 60.3%
- viability, T/C (second compound 0.0316 µM, first compound 0.3 µM): 9.46%
- viability, T/C (second compound 0.0316 µM, first compound 0.949 µM): 1.09%
- viability, T/C (second compound 0.0316 µM, first compound 3 µM): 0.76%
- viability, T/C (second compound 0.1 µM, first compound 0.00949 µM): 99.2%
- viability, T/C (second compound 0.1 µM, first compound 0.03 µM): 90.2%
- viability, T/C (second compound 0.1 µM, first compound 0.0949 µM): 56.5%
- viability, T/C (second compound 0.1 µM, first compound 0.3 µM): 10.5%
- viability, T/C (second compound 0.1 µM, first compound 0.949 µM): 0.93%
- viability, T/C (second compound 0.1 µM, first compound 3 µM): 0.63%
- viability, T/C (second compound 0.316 µM, first compound 0.00949 µM): 102%
- viability, T/C (second compound 0.316 µM, first compound 0.03 µM): 89.8%
- viability, T/C (second compound 0.316 µM, first compound 0.0949 µM): 59.6%
- viability, T/C (second compound 0.316 µM, first compound 0.3 µM): 8.45%
- viability, T/C (second compound 0.316 µM, first compound 0.949 µM): 0.85%
- viability, T/C (second compound 0.316 µM, first compound 3 µM): 0.95%
- viability, T/C (second compound 1 µM, first compound 0.00949 µM): 112%
- viability, T/C (second compound 1 µM, first compound 0.03 µM): 88.9%
- viability, T/C (second compound 1 µM, first compound 0.0949 µM): 54.7%
- viability, T/C (second compound 1 µM, first compound 0.3 µM): 5.93%
- viability, T/C (second compound 1 µM, first compound 0.949 µM): 0.81%
- viability, T/C (second compound 1 µM, first compound 3 µM): 0.72%
